{"source": "DBAASP", "assay_in_all_cases": "≥ marks a high value that may be exact or a test limit, other limits are often not marked, values filed in µg/mL are converted to µM", "key": {"[1]": {"tested_on": "Pseudomonas aeruginosa ATCC 27853"}, "[2]": {"tested_on": "Acinetobacter baumannii ATCC 19606"}, "[3]": {"tested_on": "Escherichia coli ATCC 25922"}, "[4]": {"tested_on": "Bacillus subtilis ATCC 6051"}, "[5]": {"tested_on": "Vibrio anguillarum ATCC 43305"}, "[6]": {"tested_on": "Staphylococcus aureus ATCC 25923"}, "[7]": {"tested_on": "Staphylococcus aureus CICC 10306"}, "[8]": {"tested_on": "Enterobacter cloacae CICC 21539"}, "[9]": {"tested_on": "Listeria innocua CICC 10417"}, "[10]": {"tested_on": "Bacillus subtilis CICC 10034"}, "[11]": {"tested_on": "Escherichia coli CICC 10293"}, "[12]": {"tested_on": "Pseudomonas aeruginosa CICC 21636"}, "[13]": {"tested_on": "Salmonella enterica subsp. enterica serovar Paratyphi B CICC 10437"}, "[14]": {"tested_on": "Staphylococcus aureus CICC 10384"}, "[15]": {"tested_on": "Serratia marcescens ATCC 4112"}, "[16]": {"tested_on": "Klebsiella pneumoniae ATCC 700603"}, "[17]": {"tested_on": "Streptococcus pyogenes ATCC 19615"}, "[18]": {"tested_on": "Salmonella enterica subsp. enterica serovar Enteritidis ATCC 13076"}, "[19]": {"tested_on": "Staphylococcus aureus ATCC 29213"}, "[20]": {"tested_on": "Bacillus cereus ATCC 11778"}, "[21]": {"tested_on": "Serratia marcescens ATCC 21202"}, "Escherichia coli": {"tested_on": "Escherichia coli"}, "[22]": {"tested_on": "Listeria monocytogenes NCTC 11994"}, "[23]": {"tested_on": "Acinetobacter baumannii Q12-0809"}, "[24]": {"tested_on": "Campylobacter jejuni NCTC 11351"}, "[25]": {"tested_on": "Acinetobacter baumannii Q13-0717"}, "[26]": {"tested_on": "Klebsiella pneumoniae NCTC 13442"}, "[27]": {"tested_on": "Salmonella typhimurium SL1344"}, "[28]": {"tested_on": "Pseudomonas aeruginosa PAO1"}, "[29]": {"tested_on": "Pseudomonas aeruginosa Q14-0890"}, "[30]": {"tested_on": "Enterococcus faecalis JH-2-2"}, "[31]": {"tested_on": "Staphylococcus aureus NCTC 12493"}, "Campylobacter jejuni": {"tested_on": "Campylobacter jejuni"}, "[32]": {"tested_on": "Pseudomonas aeruginosa Q14-0208"}, "[33]": {"tested_on": "Staphylococcus aureus RN4220"}, "[34]": {"tested_on": "Acinetobacter baumannii Q12-0867"}, "[35]": {"tested_on": "Pseudomonas aeruginosa Q12-0535"}, "[36]": {"tested_on": "Staphylococcus aureus MRSA-15"}, "[37]": {"tested_on": "Staphylococcus aureus Q14-0320"}, "[38]": {"tested_on": "Klebsiella pneumoniae Q14-0095"}, "Escherichia coli K-12": {"tested_on": "Escherichia coli K-12"}, "Enterobacter cloacae": {"tested_on": "Enterobacter cloacae"}, "[39]": {"tested_on": "Acinetobacter baumannii ATCC 15308"}, "[40]": {"tested_on": "Pseudomonas aeruginosa ATCC 15442"}, "Klebsiella pneumoniae": {"tested_on": "Klebsiella pneumoniae"}, "Citrobacter sp.": {"tested_on": "Citrobacter sp."}, "Staphylococcus aureus": {"tested_on": "Staphylococcus aureus"}, "Streptococcus pneumoniae": {"tested_on": "Streptococcus pneumoniae"}, "Escherichia coli UB1005": {"tested_on": "Escherichia coli UB1005"}, "Bacillus cereus C737": {"tested_on": "Bacillus cereus C737"}}}
{"smiles": "CC[C@H](C)[C@H](NC(=O)[C@H](CCCN=C(N)N)NC(=O)[C@H](CCCN=C(N)N)NC(=O)[C@@H](NC(=O)[C@@H](NC(=O)[C@H](CCCN=C(N)N)NC(=O)[C@H](CCCN=C(N)N)NC(=O)[C@H](Cc1ccccc1)NC(=O)[C@H](CCCN=C(N)N)NC(=O)[C@H](CCCN=C(N)N)NC(=O)[C@H](CCCN=C(N)N)NC(=O)[C@H](CCCN=C(N)N)NC(=O)[C@@H](N)CCCN=C(N)N)C(C)C)[C@@H](C)CC)C(=O)N[C@@H](CCCN=C(N)N)C(=O)N[C@@H](CC(C)C)C(=O)N1CCC[C@H]1C(=O)N[C@@H](CCCCN)C(=O)N[C@@H](Cc1ccc(O)cc1)C(=O)N[C@@H](CC(C)C)C(=O)N[C@H](C(=O)N[C@H](C(=O)N[C@@H](CC(N)=O)C(=O)N[C@H](C(=O)N[C@@H](CCC(=O)O)C(=O)O)[C@@H](C)O)[C@@H](C)CC)[C@@H](C)O", "note": "[RRRRRFRRVIRRIRLPKYLTINTE]", "values": [{"measurement": "MIC", "setting": "[1]", "result": 32, "unit": "µM"}, {"measurement": "MIC", "setting": "[2]", "result": 2, "unit": "µM"}, {"measurement": "MIC", "setting": "[3]", "result": 4, "unit": "µM"}, {"measurement": "MIC", "setting": "[4]", "result": "≥ 32", "unit": "µM"}, {"measurement": "MIC", "setting": "[5]", "result": "≥ 32", "unit": "µM"}, {"measurement": "MIC", "setting": "[6]", "result": 8, "unit": "µM"}]}
{"smiles": "CSCC[C@H](NC(=O)[C@@H](NC(=O)[C@@H](N)CCCN=C(N)N)C(C)C)C(=O)N[C@@H](Cc1ccccc1)C(=O)N[C@@H](CCCCN)C(=O)N[C@@H](Cc1c[nH]c2ccccc12)C(=O)N[C@@H](C)C(=O)O", "note": "[RVMFKWA]", "values": [{"measurement": "MIC", "setting": "[7]", "result": 8.54, "unit": "µM"}, {"measurement": "MIC", "setting": "[8]", "result": "≥ 34.1", "unit": "µM"}, {"measurement": "MIC", "setting": "[9]", "result": 8.54, "unit": "µM"}, {"measurement": "MIC", "setting": "[10]", "result": "≥ 34.1", "unit": "µM"}, {"measurement": "MIC", "setting": "[11]", "result": 17.1, "unit": "µM"}, {"measurement": "MIC", "setting": "[12]", "result": "≥ 34.1", "unit": "µM"}, {"measurement": "MIC", "setting": "[13]", "result": "≥ 34.1", "unit": "µM"}, {"measurement": "MIC", "setting": "[14]", "result": 8.54, "unit": "µM"}, {"measurement": "MIC", "setting": "[15]", "result": "≥ 34.1", "unit": "µM"}]}
{"smiles": "CC[C@H](C)[C@H](N)C(=O)N[C@H](C(=O)N1CCC[C@H]1C(=O)N[C@@H](CC(C)C)C(=O)N1CCC[C@H]1C(=O)N[C@@H](CC(C)C)C(=O)NCC(=O)N[C@@H](Cc1ccc(O)cc1)C(=O)N[C@@H](Cc1ccccc1)C(=O)N[C@@H](C)C(=O)N[C@@H](CCCCN)C(=O)N[C@@H](CCCCN)C(=O)N1CCC[C@H]1C(=O)O)[C@@H](C)CC", "note": "[IIPLPLGYFAKKP]", "values": [{"measurement": "MIC", "setting": "[16]", "result": "> 68.6", "unit": "µM"}, {"measurement": "MIC", "setting": "[1]", "result": "> 68.6", "unit": "µM"}, {"measurement": "MIC", "setting": "[17]", "result": "≥ 68.6", "unit": "µM"}, {"measurement": "MIC", "setting": "[3]", "result": "> 68.6", "unit": "µM"}, {"measurement": "MIC", "setting": "[18]", "result": "≥ 68.6", "unit": "µM"}, {"measurement": "MIC", "setting": "[19]", "result": "> 68.6", "unit": "µM"}, {"measurement": "MIC", "setting": "[20]", "result": "≥ 68.6", "unit": "µM"}, {"measurement": "MIC", "setting": "[21]", "result": "≥ 68.6", "unit": "µM"}]}
{"smiles": "CC[C@H](C)[C@H](NC(=O)[C@H](CO)NC(=O)[C@@H](N)CCCN=C(N)N)C(=O)N[C@H](C(=O)N[C@@H](CCCN=C(N)N)C(=O)N1CCC[C@H]1C(=O)N[C@H](C(=O)N[C@@H](CC(C)C)C(=O)N[C@H](C(=O)N[C@@H](CCCN=C(N)N)C(=O)N[C@@H](CCCN=C(N)N)C(=O)N[C@@H](CCCN=C(N)N)C(=O)N[C@@H](Cc1c[nH]c2ccccc12)C(=O)N[C@@H](CCCN=C(N)N)C(=O)N[C@H](C(=O)N[C@@H](CCCN=C(N)N)C(=O)N1CCC[C@H]1C(=O)N[C@H](C(=O)N[C@@H](Cc1ccccc1)C(=O)O)C(C)C)C(C)C)C(C)C)C(C)C)[C@@H](C)O", "note": "[RSITRPVLVRRRWRVRPVF]", "values": [{"measurement": "MIC", "setting": "[16]", "result": "> 52.2", "unit": "µM"}, {"measurement": "MIC", "setting": "Escherichia coli", "result": "> 52.2", "unit": "µM"}, {"measurement": "MIC", "setting": "[1]", "result": "> 52.2", "unit": "µM"}, {"measurement": "MIC", "setting": "[22]", "result": "≥ 209", "unit": "µM"}, {"measurement": "MIC", "setting": "[23]", "result": 26.1, "unit": "µM"}, {"measurement": "MIC", "setting": "[24]", "result": "≥ 52.2", "unit": "µM"}, {"measurement": "MIC", "setting": "[25]", "result": "≥ 52.2", "unit": "µM"}, {"measurement": "MIC", "setting": "[26]", "result": "≥ 52.2", "unit": "µM"}, {"measurement": "MIC", "setting": "[27]", "result": 26.1, "unit": "µM"}, {"measurement": "MIC", "setting": "[28]", "result": 209, "unit": "µM"}, {"measurement": "MIC", "setting": "[29]", "result": "≥ 52.2", "unit": "µM"}, {"measurement": "MIC", "setting": "[19]", "result": "> 52.2", "unit": "µM"}, {"measurement": "MIC", "setting": "[30]", "result": "≥ 209", "unit": "µM"}, {"measurement": "MIC", "setting": "[31]", "result": "≥ 52.2", "unit": "µM"}, {"measurement": "MIC", "setting": "Campylobacter jejuni", "result": "≥ 52.2", "unit": "µM"}, {"measurement": "MIC", "setting": "[32]", "result": "≥ 52.2", "unit": "µM"}, {"measurement": "MIC", "setting": "[33]", "result": "≥ 104", "unit": "µM"}, {"measurement": "MIC", "setting": "[34]", "result": "≥ 52.2", "unit": "µM"}, {"measurement": "MIC", "setting": "[35]", "result": "≥ 51", "unit": "µM"}, {"measurement": "MIC", "setting": "[36]", "result": "≥ 102", "unit": "µM"}, {"measurement": "MIC", "setting": "[37]", "result": "≥ 52.2", "unit": "µM"}, {"measurement": "MIC", "setting": "[38]", "result": "≥ 52.2", "unit": "µM"}, {"measurement": "MIC", "setting": "Escherichia coli K-12", "result": "≥ 104", "unit": "µM"}]}
{"smiles": "NC(=O)[C@H](CCCN=C(N)N)NC(=O)[C@H](CCCN=C(N)N)NC(=O)[C@H](Cc1c[nH]c2ccccc12)NC(=O)[C@@H]1CCCN1C(=O)[C@H](Cc1c[nH]c2ccccc12)NC(=O)[C@H](Cc1c[nH]c2ccccc12)NC(=O)[C@@H]1CCCN1C(=O)[C@H](Cc1c[nH]c2ccccc12)NC(=O)[C@H](CCCN=C(N)N)NC(=O)[C@H](Cc1c[nH]c2ccccc12)NC(=O)[C@@H]1CCCN1C(=O)[C@H](CCCN=C(N)N)NC(=O)[C@@H](N)CCCN=C(N)N", "note": "[RRPWRWPWWPWRR]", "values": [{"measurement": "MIC", "setting": "Enterobacter cloacae", "result": "≥ 124", "unit": "µM"}, {"measurement": "MIC", "setting": "[3]", "result": 15.5, "unit": "µM"}, {"measurement": "MIC", "setting": "[39]", "result": "≥ 124", "unit": "µM"}, {"measurement": "MIC", "setting": "[40]", "result": 15.5, "unit": "µM"}, {"measurement": "MIC", "setting": "Klebsiella pneumoniae", "result": "> 124", "unit": "µM"}, {"measurement": "MIC", "setting": "Citrobacter sp.", "result": "≥ 124", "unit": "µM"}, {"measurement": "MIC", "setting": "Staphylococcus aureus", "result": 15.5, "unit": "µM"}, {"measurement": "MIC", "setting": "[6]", "result": 15.5, "unit": "µM"}, {"measurement": "MIC", "setting": "Streptococcus pneumoniae", "result": 15.5, "unit": "µM"}]}
{"smiles": "CC[C@H](C)[C@H](NC(=O)[C@H](CC(=O)O)NC(=O)[C@H](Cc1ccccc1)NC(=O)[C@H](CC(C)C)NC(=O)CN)C(=O)N[C@H](C(=O)N[C@@H](CCCCN)C(=O)N[C@@H](CCCCN)C(=O)N[C@H](C(=O)N[C@H](C(N)=O)C(C)C)C(C)C)C(C)C", "note": "[GLFDIVKKVV]", "values": [{"measurement": "MIC", "setting": "[28]", "result": "> 115", "unit": "µM"}, {"measurement": "MIC", "setting": "Escherichia coli UB1005", "result": "≥ 115", "unit": "µM"}, {"measurement": "MIC", "setting": "Bacillus cereus C737", "result": "≥ 115", "unit": "µM"}]}
